Results taken from the NIST ThermoML archive (doi:10.1021/je200616t).
“And” between values parts separate entries of the source, which are not always exact repeats. Equal entries are not always repeated.

Key:
[1] = Liquid, MP522 conductivity instrument
[2] = xn = mol fraction of the nth substance listed; conditions: 298.15 K, 101 kPa, Liquid, MP522 conductivity instrument

CCCC[n+]1ccccc1.O=S(=O)([N-]S(=O)(=O)C(F)(F)F)C(F)(F)F [1-butylpyridinium bis[(trifluoromethyl)sulfonyl]imide]
electrical conductivity, [1]
Conditions	283.15 K	293.15 K	298.15 K	303.15 K	313.15 K
101 kPa	0.151 S/m	–	0.308 S/m	0.377 S/m	0.542 S/m and 0.54 S/m
101.33 kPa	0.15 S/m and 0.151 S/m	0.246 S/m	0.307 S/m and 0.308 S/m	0.378 S/m and 0.377 S/m	0.541 S/m and 0.542 S/m and 0.54 S/m

CCCC[n+]1ccccc1.O=S(=O)([N-]S(=O)(=O)C(F)(F)F)C(F)(F)F [1-butylpyridinium bis[(trifluoromethyl)sulfonyl]imide] + CO
[2]
Conditions	electrical conductivity [S/m]
x1 = 0.00227	0.302
x1 = 0.00676	0.679
x1 = 0.0112	0.961
x1 = 0.0179	1.29
x1 = 0.023	1.5
x1 = 0.0297	1.71
x1 = 0.0427	1.99
x1 = 0.0507	2.12
x1 = 0.0696	2.28
x1 = 0.092	2.35
x1 = 0.1676	2.15
x1 = 0.2137	1.96
x1 = 0.2653	1.72
x1 = 0.2984	1.58
x1 = 0.3655	1.33
x1 = 0.4009	1.22
x1 = 0.4397	1.11
x1 = 0.5194	0.91
x1 = 0.561	0.825
x1 = 0.6014	0.749
x1 = 0.6433	0.681
x1 = 0.7132	0.581
x1 = 0.7592	0.523
x1 = 0.8182	0.456
x1 = 0.8544	0.421
x1 = 0.8988	0.381
x1 = 0.9425	0.346
x1 = 1	0.308

CCCCC[n+]1ccccc1.O=S(=O)([N-]S(=O)(=O)C(F)(F)F)C(F)(F)F [1-pentylpyridinium bis(trifluoromethylsulfonyl)amide] + CO
[2]
Conditions	electrical conductivity [S/m]
x1 = 0.00257	0.323
x1 = 0.00682	0.658
x1 = 0.012	0.966
x1 = 0.0185	1.26
x1 = 0.0256	1.5
x1 = 0.0325	1.67
x1 = 0.0398	1.82
x1 = 0.0546	1.97
x1 = 0.0734	2.1
x1 = 0.0854	2.11
x1 = 0.1093	2.05
x1 = 0.1709	1.82
x1 = 0.2113	1.61
x1 = 0.3105	1.22
x1 = 0.3653	1.03
x1 = 0.4197	0.886
x1 = 0.4604	0.788
x1 = 0.5266	0.652
x1 = 0.5689	0.585
x1 = 0.6107	0.522
x1 = 0.6447	0.479
x1 = 0.7183	0.401
x1 = 0.7639	0.361
x1 = 0.8278	0.313
x1 = 0.8938	0.27
x1 = 0.9397	0.246
x1 = 1	0.216

CCCC[n+]1ccc(C)cc1.O=S(=O)([N-]S(=O)(=O)C(F)(F)F)C(F)(F)F
Conditions	electrical conductivity
[1], 298.15 K, 101 kPa	0.332 S/m and 0.333 S/m

CCCCCC[n+]1ccccc1.O=S(=O)([N-]S(=O)(=O)C(F)(F)F)C(F)(F)F [1-hexylpyridinium bis(trifluromethylsulfonyl)imide]
[1], 101 kPa
Conditions	electrical conductivity
283.15 K	0.0737 S/m
293.15 K	0.128 S/m and 0.129 S/m
298.15 K	0.163 S/m
303.15 K	0.205 S/m
313.15 K	0.306 S/m

CC[n+]1ccc(C)cc1.O=S(=O)([N-]S(=O)(=O)C(F)(F)F)C(F)(F)F
Conditions	electrical conductivity
[1], 298.15 K, 101 kPa	0.771 S/m and 0.769 S/m

CCCC[n+]1ccc(C)cc1.O=S(=O)([N-]S(=O)(=O)C(F)(F)F)C(F)(F)F + CO
[2]
Conditions	electrical conductivity [S/m]
x1 = 0.00761	0.7
x1 = 0.00979	0.836
x1 = 0.0118	0.951
x1 = 0.0142	1.07
x1 = 0.0176	1.24
x1 = 0.021	1.38
x1 = 0.0297	1.69
x1 = 0.0366	1.86
x1 = 0.0544	2.15
x1 = 0.0653	2.25
x1 = 0.0711	2.28
x1 = 0.0773	2.32
x1 = 0.1083	2.34
x1 = 0.1388	2.25
x1 = 0.1724	2.11
x1 = 0.1977	2
x1 = 0.2256	1.87
x1 = 0.2662	1.68
x1 = 0.3346	1.4
x1 = 0.3989	1.18
x1 = 0.481	1.02
x1 = 0.5543	0.861
x1 = 0.6316	0.719
x1 = 0.714	0.599
x1 = 0.7932	0.504
x1 = 0.8534	0.444
x1 = 0.9551	0.362
x1 = 1	0.332

CC[n+]1ccc(C)cc1.O=S(=O)([N-]S(=O)(=O)C(F)(F)F)C(F)(F)F + CO
[2]
Conditions	electrical conductivity [S/m]
x1 = 0.00925	0.925
x1 = 0.0105	1.01
x1 = 0.0144	1.27
x1 = 0.0176	1.45
x1 = 0.0227	1.72
x1 = 0.0313	2.1
x1 = 0.0393	2.36
x1 = 0.0492	2.62
x1 = 0.0575	2.79
x1 = 0.0666	2.94
x1 = 0.0757	3.05
x1 = 0.0856	3.14
x1 = 0.0993	3.22
x1 = 0.1435	3.26
x1 = 0.1601	3.23
x1 = 0.1736	3.2
x1 = 0.1902	3.14
x1 = 0.2037	3.09
x1 = 0.2297	2.97
x1 = 0.2575	2.84
x1 = 0.284	2.72
x1 = 0.3231	2.53
x1 = 0.3561	2.39
x1 = 0.3932	2.23
x1 = 0.4574	2
x1 = 0.5075	1.81
x1 = 0.5713	1.61
x1 = 0.6042	1.52
x1 = 0.6803	1.33
x1 = 0.7416	1.2
x1 = 0.8215	1.04
x1 = 0.8959	0.912
x1 = 0.918	0.883
x1 = 1	0.771

CC[n+]1ccccc1.O=S(=O)([N-]S(=O)(=O)C(F)(F)F)C(F)(F)F [1-ethylpyridinium bis[(trifluoromethyl)sulfonyl]imide]
Conditions	electrical conductivity
[1], 298.15 K, 101 kPa	0.63 S/m and 0.629 S/m
